Data taken from patent publication US7238725B2, “Tricyclic compounds useful for the treatment of inflammatory and allergic disorders: process for their preparation and pharmaceutical compositions containing them” (Glenmark Pharmaceuticals Ltd., priority 2002, dated 2007).

Columns and labels:
PDE4 enzyme = assay: Inhibition of Phosphodiesterase Enzymes (PDE4), [3H]cAMP hydrolysis; type: biochemical; settings: PDE4 enzyme, 1 μM cAMP and 3H cAMP, 34° C.; read-out: IC50
Protocol: Inhibition of Phosphodiesterase Enzymes (PDE4)
In this assay, PDE4 enzyme converts [^3H] cAMP to the corresponding [^3H] 5′-AMP in proportion to the amount of PDE4 present The [^3H] 5′-AMP then was quantitatively converted to free [^3H] adenosine and phosphate by the action of snake venom 5′-nucleotidase.
The assay was performed with modification of the method of Thompson and Appleman (Biochemistry; 1971; 10; 311-316) and Schwartz and Passoneau (Proc. Natl. Acad. Sci. U.S.A. 1974; 71; 3844-3848), both references incorporated herein by reference in their entirety, at 34° C. In a 200 ul total reaction mixture, the reaction mixture contained 12.5 mM of Tris, 5 mM MgCl2, 1 μM cAMP (cold) and ^3H cAMP (0.1 uCi), (Amersham). […] Drug samples were then added in the reaction mixture (25 μl/tube). The assay was initiated by addition of enzyme mix (75 μl) and the mixture was incubated for 20 minutes at 34° C. The reaction was stopped by boiling the tubes for 2 mins at 100° C. in a water bath. After cooling on ice for 5 minutes and addition of 50 ug/reaction of 5′-nucleotidase snake venom from Crotalus atrox incubation was carried out again for 20 min. at 34° C. The unreacted substrate was separated from (^3H) Adenosine by addition of Dowex AG 1-X8 (Biorad Lab), (400 ul) which was prequilibrated (1:1:1) in water and ethanol. Reaction mixture was then thoroughly mixed, placed on ice for 15 minutes, vortexed and centrifuged at 14,000 r.p.m. for 2 mins. After centrifugation, a sample of the supernatant was taken and added in 24 well optiplates containing Scintillant (1 ml) and mixed well. The samples in the plates were then determined for radioactivity in a Top Counter and the PDE4 activity was estimated. PDE4 enzyme was present in quantities that yield <30% total hydrolysis of substrate (linear assay conditions).
Results were expressed as percent inhibition (IC50) in nM concentrations. The IC50 values were determined from the concentration curves by nonlinear regression analysis.
The IC50 value for the compound examined was determined from concentration-response curves in which varying range of concentrations were considered as shown in table 1

PDE4 = assay: Cell Based Assay for PDE4 Inhibition: cAMP elevation in whole U937 cells; settings: 1 μM PGE1, normalized over PGE1
Protocol: Cell Based Assay for PDE4 Inhibition:
cAMP elevation studies were conducted in whole U937 cells. U937 cells (ATCC) were grown in RPMI medium containing 10% FBS, 1% pen-strep solution, 1% L-glutamine for 48 hrs. On the day of assay, the cells were washed twice with plain RPM1 medium by centrifuging at 800 rpm for 5 mins. Cells were resuspended in plain RPM1 medium followed by cell number and viability assessment using a trypan blue stain. Cells (0.15-0.2 mio cells per well) were seeded in a 96 well microtitre plate and incubated with various drugs/DMSO vehicle at 37° C. for 15 min. cAMP generation was started by addition of 1 μM PGE1 for 15 mins. The incubation was terminated by addition of cell lysis buffer from cAMP estimation kit. Lysate was used for cAMP quantitatin by chemiluminescence method (DiscoveRX kits). cAMP values were normalized over PGE1. EC50 values were calculated from dose response curves by nonlinear regression analysis using PRISM software.

Row | Structure (SMILES) | IC50 (PDE4 enzyme) | melting point | EC50 (PDE4)
1 | O=C(Nc1c(Cl)cncc1Cl)c1ccc(OC(F)F)c2oc3ccc(C(F)(F)F)cc3c12 [Example 12, N-(3,5-dichloropyrid-4-yl)-4-difluoromethoxy-8-trifluoromethyl dibenzo[b,d]furan-1-carboxamide] | 1.21 nM | 228 °C | 140 nM
2 | O=C(Nc1ccncc1)c1ccc(OC(F)F)c2oc3ccc(C(F)(F)F)cc3c12 [Example 14, N-(pyrid-4-yl)-4-difluoromethoxy-8-trifluoromethyl dibenzo[b,d]furan-1-carboxamide] | 6.41 nM | 228 °C | 
3 | COc1ccc(C(=O)Nc2c(Cl)cncc2Cl)c2c1oc1ccc(C(F)(F)F)cc12 [Example 9, N-(3,5-dichloropyrid-4-yl)-4-methoxy-8-trifluoromethyl dibenzo[b,d]furan-1-carboxamide] | 1.56 nM |  | 17.6 nM
4 | COc1ccc(C(=O)Nc2c(Cl)c[n+]([O-])cc2Cl)c2c1oc1ccccc12 [Example 2, N-(3,5-dichloropyrid-4-yl)-4-methoxy dibenzo[b,d]furan-1-carboxamide-N1-oxide] |  | 265 to 270 °C | 23.8 nM
5 | COc1ccc(C(=O)Nc2cccnc2Cl)c2c1oc1ccccc12 [Example 5, N-(2-chloropyrid-3-yl)-4-methoxy dibenzo[b,d]furan-1-carboxamide] | 336 nM | 192 °C | 
6 | COc1ccc(C(=O)Nc2cccnc2)c2c1oc1ccccc12 [Example 7, N-(pyrid-3-yl)-4-methoxy dibenzo[b,d]furan-1-carboxamide] | 26 nM | 226 °C | 
7 | COc1ccc(C(=O)Nc2ccncc2)c2c1oc1ccc(C(F)(F)F)cc12 [Example 11, N(pyrid-4-yl)-4-methoxy-8-trifluoromethyl dibenzo[b,d]furan-1-carboxamide] | 9.14 nM |  | > 220 nM
8 | O=C(Nc1cccnc1)c1ccc(OC(F)F)c2oc3ccc(C(F)(F)F)cc3c12 [Example 16, N-(pyrid-3-yl)-4-difluoromethoxy-8-trifluoromethyl dibenzo[b,d]furan-1-carboxamide] |  | 235 to 236 °C | 
9 | O=C(Nc1ccccn1)c1ccc(OC(F)F)c2oc3ccc(C(F)(F)F)cc3c12 [Example 18, N-(pyrid-2-yl)-4-difluoromethoxy-8-trifluoromethyl dibenzo[b,d]furan-1-carboxamide] |  | 169 to 170 °C | 
10 | O=C(Nc1c(Cl)c[n+]([O-])cc1Cl)c1ccc(OC(F)F)c2oc3ccc(C(F)(F)F)cc3c12 [Example 13, N-(3,5-dichloropyrid-4-yl)-4-difluoromethoxy-trifluoromethyl dibenzo[b,d]furan-1-carboxamide-N1-oxide] | 2.54 nM |  | 128 nM
11 | COc1ccc(C(=O)Nc2cc[n+]([O-])cc2)c2c1oc1ccccc12 [Example 4, N(pyrid-4-yl)-4-methoxy dibenzo[b,d]furan-1-carboxamide-N1-oxide] | 20.2 nM |  | > 300 nM
12 | COc1ccc(C(=O)Nc2c(Cl)c[n+]([O-])cc2Cl)c2c1oc1ccc(C(F)(F)F)cc12 [Example 10, N-(3,5-dichloropyrid-4-yl)-4-methoxy-8-trifluoromethyl dibenzo[b,d]furan-1-carboxamide-N1-oxide] | 1.68 nM |  | 117 nM

Second part, led by results:

Row | IC50 (PDE4 enzyme) | melting point | Structure (SMILES) | EC50 (PDE4)
13 | 2.85 nM |  | COc1ccc(C(=O)Nc2c(Cl)cncc2Cl)c2c1oc1ccc([N+](=O)[O-])cc12 [Example 38, N-(3,5-dichloropyrid-4-yl)-4-methoxy-8-nitro dibenzo[b,d]furan-1-carboxamide] | 87.9 nM
14 | 10 nM | > 270 °C | O=C(Nc1c(Cl)cncc1Cl)c1ccc(OC(F)F)c2oc3ccc([N+](=O)[O-])cc3c12 [Example 58, N-(3,5-dichloropyrid-4-yl)-4-difluoromethoxy-8-nitro-dibenzo[b,d]furan-1-carboxamide] | 148 nM
15 | 1.74 nM |  | COc1ccc(C(=O)Nc2c(Cl)cncc2Cl)c2c1oc1ccc(C#N)cc12 [Example 57, N-(3,5dichloropyrid-4-yl)-4-methoxy-8-cyano-dibenzo[b,d]furan-1-carboxamide] | 73.7 nM
16 | 2.85 nM |  | O=C(Nc1c(Cl)c[n+]([O-])cc1Cl)c1ccc(OC(F)F)c2oc3ccccc3c12 [Example 56, N-(3,5-dichloropyrid-4-yl)-4-difluoromethoxy-dibenzo[b,d]furan-1-carboxamide-N-oxide] | 49.2 nM
17 | 1.2 nM | 249 °C (dec.) | COc1ccc(C(=O)Nc2c(Cl)cncc2Cl)c2c1oc1ccc(N)cc12 [Example 55, N-(3,5-dichloropyrid-4-yl)-4-methoxy-8-amino-dibenzo[b,d]furan-1-carboxamide] | 47.5 nM
18 | 0.839 nM | 300 °C | COc1ccc(C(=O)Nc2c(Cl)cncc2Cl)c2c1oc1ccc(Cl)cc12 [Example 41, N-(3,5-dichloropyrid-4-yl)-4-methoxy-8-chloro-dibenzo[b,d]furan-1-carboxamide] | 200 nM
19 | 4.92 nM | 308 °C | COc1ccc(C(=O)Nc2c(Cl)cncc2Cl)c2c1oc1ccc(Br)cc12 [Example 42, N-(3,5-dichloropyrid-4-yl)-4-methoxy-8-bromo-dibenzo[b,d]furan-1-carboxamide] | 44.2 nM
20 |  | 176 °C (dec.) | COc1c(C(=O)Nc2c(Cl)cncc2Cl)ccc2c1oc1ccccc12 [Example 52, N-(3,5-dichloropyrid-4-yl)-4-methoxy dibenzo[b,d]furan-3-carboxamide] | 
21 |  | 269 to 270 °C (dec.) | O=C(Nc1c(Cl)cncc1Cl)c1ccc(OCc2ccccc2)c2oc3ccccc3c12 [Example 37, N-(3,5-dichloropyrid-4-yl)-4-benzyloxy dibenzo[b,d]furan-1-carboxamide] | 
22 | 4.54 nM | 304 °C (dec.) | COc1ccc(C(=O)Nc2c(Cl)cncc2Cl)c2c1oc1ccc(I)cc12 [Example 45, N-(3,5-dichloropyrid-4-yl)-4-methoxy-8-iodo-dibenzo[b,d]furan-1-carboxamide] | > 300 nM
23 | 4.47 nM | > 270 °C | Nc1ccc2oc3c(OC(F)F)ccc(C(=O)Nc4c(Cl)cncc4Cl)c3c2c1 [Example 59, N-(3,5-dichloropyrid-4-yl)-4-difluoromethoxy-8-amino-dibenzo[b,d]furan-1-carboxamide] | 49.2 nM
24 |  | 155 to 157 °C | O=C(Nc1ccc(Cl)cn1)c1ccc(OC(F)F)c2oc3ccccc3c12 [Example 24, N-(5-chloropyrid-2-yl)-4-difluoromethoxy dibenzo[b,d]furan-1-carboxamide] | 
25 | 111 nM | 242 °C | O=C(Nc1c(Cl)cncc1Cl)c1ccc(OCC2CC2)c2oc3ccccc3c12 [Example 25, N-(3,5-dichloropyrid-4-yl)-4-cyclopropylmethoxy dibenzo[b,d]furan-1-carboxamide] | 
26 | 2.54 nM | 270 °C | O=C(Nc1c(Cl)cncc1Cl)c1ccc(OC(F)F)c2oc3ccccc3c12 [Example 19, N-(3,5-dichloropyrid-4-yl)-4-difluoromethoxy dibenzo[b,d]furan-1-carboxamide] | 20.4 nM
27 |  | 242 to 244 °C | COc1ccc(S(=O)(=O)Nc2c(Cl)cncc2Cl)c2c1oc1ccccc12 [Example 54, N-(3,5-dichloropyrid-4-yl)-4-methoxy dibenzo[b,d]furan-1-sulfonamide] | 
